Usually IC50 stands for the concentration at which inhibition is half-maximal.

Structures are written as SMILES. The source made the active and inactive calls. The rule behind the calls is not given here.

Data on 2 molecules can be found in ChEMBL document CHEMBL4834431, “Design of Dimeric Bile Acid Derivatives as Potent and Selective Human NTCP Inhibitors” (J Med Chem, 2021).

Data set [1] deals with Hepatitis delta virus. Briefly: Antiviral activity against HDV infected in human HepG2-NTCP cells assessed as reduction in intranuclear accumulation of HDV delta antigen at 10 uM incubated for 24 hrs followed by replacement with fresh medium and measured at day 5 post infection by DAPI staining based confocal microscopic analysis (reference value: 12.1 %). In kind it is functional. On the set-up: scale not given: the % may be the effect or the level left.

Data set [2] concerns the target T1, Hepatic sodium/bile acid cotransporter (Homo sapiens, UniProt Q14973).
T1 sequence (Q14973 whole entry): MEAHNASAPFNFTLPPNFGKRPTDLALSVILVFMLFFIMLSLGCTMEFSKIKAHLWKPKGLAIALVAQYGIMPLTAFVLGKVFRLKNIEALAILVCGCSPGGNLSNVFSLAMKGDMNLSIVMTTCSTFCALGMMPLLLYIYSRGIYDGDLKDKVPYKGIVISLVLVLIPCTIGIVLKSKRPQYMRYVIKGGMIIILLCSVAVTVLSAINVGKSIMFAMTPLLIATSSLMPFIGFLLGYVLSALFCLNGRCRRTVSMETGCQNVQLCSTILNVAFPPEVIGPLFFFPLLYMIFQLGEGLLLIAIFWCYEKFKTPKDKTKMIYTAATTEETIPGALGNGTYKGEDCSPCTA
Briefly: Inhibition of human NTCP-mediated [3H]-TCA uptake expressed in human HepG2 cells at 3.3 uM incubated for 10 mins by liquid scintillation counter analysis. Format: cell-based. Particulars: hepg2, 10 min.

Data set [3] concerns Hepatitis B virus. The data set is described as follows: Antiviral activity against HBV infected in human HepG2-NTCP cells assessed as reduction in HBeAg secretion measured at day 7 post infection by ELISA. In kind it is functional, organism-based. As to conditions: HepG2, 168 h.
The subject of data set [4] is Hepatitis B virus. The data set is described as follows: Antiviral activity against HBV infected in human HepG2-NTCP cells assessed as reduction in HBeAg secretion at 1 to 10 uM incubated for 24 hrs followed by replacement with fresh medium and measured at day 5 post infection by ELISA. In kind it is functional, organism-based. Particulars: dose 1-10 µM. On the technique in general: ELISA stands for enzyme-linked immunosorbent assay.

For data set [5], the system named is Hepatitis B virus. The data set is described as follows: Antiviral activity against HBV infected in human HepG2-NTCP cells assessed as reduction in intracellular HBV RNA level at 1 uM by qPCR analysis. Format: functional, organism-based.
Data set [6] concerns HepG2. Briefly: Inhibition of monkey NTCP-mediated NQL-064 uptake expressed in human HepG2 cells. In kind it is cell-based. As to conditions: Macaca mulatta.
For data set [7], the target named is T2, Hepatic sodium/bile acid cotransporter (Mus musculus, UniProt O08705).
T2 sequence (O08705 whole entry): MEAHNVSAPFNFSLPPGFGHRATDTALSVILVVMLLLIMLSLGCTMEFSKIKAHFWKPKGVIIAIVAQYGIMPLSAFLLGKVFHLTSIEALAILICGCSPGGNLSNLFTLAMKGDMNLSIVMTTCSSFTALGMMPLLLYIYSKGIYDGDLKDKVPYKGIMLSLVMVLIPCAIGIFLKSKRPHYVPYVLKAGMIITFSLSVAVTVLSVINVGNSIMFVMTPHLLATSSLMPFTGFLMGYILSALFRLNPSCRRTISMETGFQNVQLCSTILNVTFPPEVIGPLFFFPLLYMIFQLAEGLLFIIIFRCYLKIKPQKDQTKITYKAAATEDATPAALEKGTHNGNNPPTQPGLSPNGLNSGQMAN
The data set is described as follows: Inhibition of mouse NTCP-mediated [3H]-TCA uptake expressed in human HepG2 cells. Format: cell-based.

The subject of data set [8] is HepG2. Briefly: Effect on NTCP surface expression in human HepG2-NTCP cells assessed as reduction in NTCP surface expression level after 2 hrs by immunostaining based assay. In kind it is functional, cell-based.
The subject of data set [9] is HepG2. The data set is described as follows: Cytotoxicity against human HepG2 cells expressing NTCP assessed as reduction in cell viability at 10 uM after 48 hrs by alamar blue assay. In kind it is cell-based. Particulars: hepg2, 48 h. For orientation: Alamar Blue is a resazurin reagent that responds to reducing activity.
For data set [10], the system named is Hepatitis B virus. The data set is described as follows: Antiviral activity against HBV infected in human HepG2-NTCP cells assessed as reduction in HBeAg secretion at 1 uM pre-infected with virus followed by compound addition by ELISA. In kind it is functional, organism-based.
The test system of data set [11] is HepG2. Briefly: Inhibition of tree shrew NTCP-mediated [3H]-TCA uptake expressed in human HepG2 cells. In kind it is cell-based. As to conditions: Scandentia.
In data set [12] the test system is Hepatitis B virus. The data set is described as follows: Antiviral activity against HBV infected in human HepG2-NTCP cells assessed as reduction in HBeAg secretion at 1 uM preincubated with compound followed by viral infection by ELISA. Format: functional, organism-based.
Data set [13] concerns the target T2, Hepatic sodium/bile acid cotransporter. Briefly: Inhibition of mouse NTCP-mediated NQL-064 uptake expressed in human HepG2 cells. In kind it is cell-based.
Data set [14] deals with HepG2. Briefly: Inhibition of tree shrew NTCP-mediated NQ-064 uptake expressed in human HepG2 cells. Format: cell-based. As to conditions: Scandentia.
Data set [15] concerns the target T1, Hepatic sodium/bile acid cotransporter. The data set is described as follows: Inhibition of human NTCP-mediated [3H]-Estrone sulfate uptake expressed in human HepG2 cells at 2 uM. As to conditions: hepg2, 2 µM. Format: cell-based.
The target is the same in data set [16]. The data set is described as follows: Inhibition of human NTCP-mediated [3H]-TCA uptake expressed in human HepG2 cells. Format: cell-based. Particulars: human, hepg2.
Data set [17] has as its target T3, Solute carrier organic anion transporter family member 1B1 (Homo sapiens, UniProt Q9Y6L6).
T3 sequence (Q9Y6L6 whole entry): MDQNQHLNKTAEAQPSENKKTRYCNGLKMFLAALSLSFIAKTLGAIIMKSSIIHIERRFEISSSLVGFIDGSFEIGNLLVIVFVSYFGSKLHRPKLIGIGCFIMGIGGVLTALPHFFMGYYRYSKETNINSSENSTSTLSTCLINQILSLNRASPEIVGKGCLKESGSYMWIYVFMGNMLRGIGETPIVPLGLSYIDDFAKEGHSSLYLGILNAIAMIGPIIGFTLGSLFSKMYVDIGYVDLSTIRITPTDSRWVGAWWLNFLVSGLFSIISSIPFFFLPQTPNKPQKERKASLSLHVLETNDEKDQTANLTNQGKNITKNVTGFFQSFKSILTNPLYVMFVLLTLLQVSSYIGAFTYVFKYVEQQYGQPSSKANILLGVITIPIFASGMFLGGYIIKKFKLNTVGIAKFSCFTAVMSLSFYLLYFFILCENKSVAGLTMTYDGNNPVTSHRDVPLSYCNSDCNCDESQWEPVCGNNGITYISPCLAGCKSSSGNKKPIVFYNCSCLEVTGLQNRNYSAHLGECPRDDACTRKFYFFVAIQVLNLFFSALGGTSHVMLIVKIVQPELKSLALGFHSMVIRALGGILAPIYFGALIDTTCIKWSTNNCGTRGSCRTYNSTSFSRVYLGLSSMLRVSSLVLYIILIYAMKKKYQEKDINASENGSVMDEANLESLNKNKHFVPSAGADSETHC
The data set is described as follows: Inhibition of human OATP1B1-mediated [3H]-Estrone sulfate uptake expressed in human HepG2 cells at 2 uM. In kind it is cell-based. Particulars: hepg2, 2 µM.

Another data set has as its system Hepatocyte. The data set is described as follows: Cytotoxicity against primary tupaia hepatocytes expressing NTCP assessed as reduction in cell viability at 100 uM after 48 hrs by Cell-Titer Glo assay. In kind it is cell-based. As to conditions: scandentia.
In data set [18] the test system is Hepatitis B virus. Briefly: Antiviral activity against HBV infected in human HepG2-NTCP cells assessed as reduction in HBeAg secretion preincubated for 2 hrs followed by viral infection by ELISA. Format: functional, organism-based.
For data set [19], the target named is T4, Ileal sodium/bile acid cotransporter (Homo sapiens, UniProt Q12908).
T4 sequence (Q12908 whole entry): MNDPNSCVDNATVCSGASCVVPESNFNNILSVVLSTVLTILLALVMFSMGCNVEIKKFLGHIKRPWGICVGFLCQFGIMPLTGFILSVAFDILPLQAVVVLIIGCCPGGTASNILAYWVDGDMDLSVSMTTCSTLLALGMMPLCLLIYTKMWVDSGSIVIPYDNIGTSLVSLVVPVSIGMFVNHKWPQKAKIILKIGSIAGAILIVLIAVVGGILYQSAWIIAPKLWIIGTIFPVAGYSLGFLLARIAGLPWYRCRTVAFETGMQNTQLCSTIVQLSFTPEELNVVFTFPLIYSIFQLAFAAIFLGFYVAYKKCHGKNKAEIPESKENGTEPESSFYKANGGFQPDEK
The data set is described as follows: Inhibition of human ASBT-mediated [3H]-TCA uptake expressed in human HepG2 cells at 2 uM. In kind it is cell-based. As to conditions: hepg2, 2 µM.

In data set [20] the test system is Hepatitis delta virus. The data set is described as follows: Antiviral activity against HDV infected in human HepG2-NTCP cells assessed as reduction in intranuclear accumulation of HDV delta antigen at 5 uM incubated for 24 hrs followed by replacement with fresh medium and measured at day 5 post infection by DAPI staining based confocal microscopic analysis (reference value: 12.1 %). In kind it is functional. More on the design: scale not given: the % may be the effect or the level left.

In data set [21] the test system is Hepatitis B virus. Briefly: Antiviral activity against HBV infected in human HepG2-NTCP cells assessed as reduction in intracellular accumulation of HBsAg at 1 uM by immunostaining based fluorescence microscopic analysis. Format: functional, organism-based.
Data set [22] concerns HepG2. Briefly: Inhibition of monkey NTCP-mediated [3H]-TCA uptake expressed in human HepG2 cells. In kind it is cell-based. As to conditions: Macaca mulatta.
Data set [23] deals with Hepatitis B virus. The data set is described as follows: Antiviral activity against HBV infected in human HepG2-NTCP cells assessed as reduction in intracellular accumulation of HBcAg at 1 uM by immunostaining based fluorescence microscopic analysis. Format: functional, organism-based.
In data set [24] the test system is Hepatitis B virus. The data set is described as follows: Antiviral activity against HBV infected in human HepG2-NTCP cells assessed as reduction in HBeAg secretion at 111 to 1000 nM incubated for 24 hrs followed by replacement with fresh medium and measured at day 5 post infection by ELISA. In kind it is functional, organism-based. As to conditions: dose 111-1000 nM.

The target in data set [25] is T1, Hepatic sodium/bile acid cotransporter. The data set is described as follows: Inhibition of human NTCP-mediated NQL-064 uptake expressed in human HepG2 cells. In kind it is cell-based.
Data set [26] has as its system Hepatitis B virus. Briefly: Antiviral activity against HBV infected in human HepG2-NTCP cells assessed as reduction in HBeAg secretion at 1 uM compound added along with viral infection by ELISA. In kind it is functional, organism-based.
The target of data set [27] is T1, Hepatic sodium/bile acid cotransporter. Briefly: Inhibition of human NTCP-mediated [3H]-TCA uptake expressed in human HepG2 cells at 2 uM. Format: cell-based. Particulars: hepg2, 2 µM.
In data set [28] the test system is Hepatitis B virus. The data set is described as follows: Antiviral activity against HBV infected in human HepG2-NTCP cells assessed as reduction in HBeAg secretion incubated for 24 hrs followed replacement with fresh medium and measured at day 5 post infection by ELISA. In kind it is functional, organism-based.
Data set [29] deals with T1, Hepatic sodium/bile acid cotransporter. The data set is described as follows: Inhibition of FITC-labeled HBV Pre-S1 polypeptide binding to human NTCP expressed in HepG2 cells after 2 to 3 hrs by confocal microscopic analysis. Particulars: time 2-3 hrs. In kind it is cell-based.

Consider `C[C@H](CCC(=O)NCCS(=O)(=O)O)[C@H]1CC[C@H]2[C@@H]3[C@@H](O)C[C@@H]4C[C@H](O)CC[C@]4(C)[C@H]3CC[C@]12C` [TAURURSODIOL], for which the Activity with Hepatitis delta virus [1] amounted to 7.1%. In addition, in [2], the “inhibition (INH)” value is on record as “Not Active”. Further, the IC50 with Hepatitis B virus [3] turned out to be 3000 nM. The result in the data set with Hepatitis B virus [4] was inactive.
With `C[C@H](CCC(=O)NCCS(=O)(=O)O)[C@H]1CC[C@H]2[C@@H]3[C@@H](O)C[C@@H]4C[C@H](OCc5cn([C@@H]6CC[C@@]7(C)[C@@H](C6)C[C@H](O)[C@@H]6[C@@H]7CC[C@]7(C)[C@@H]([C@H](C)CCC(=O)NCCS(=O)(=O)O)CC[C@@H]67)nn5)CC[C@]4(C)[C@H]3CC[C@]12C`, the outcome in the data set on Hepatitis B virus [5], in the data set with Hepatitis B virus [12], in the data set on Hepatitis B virus [21], in the data set on Hepatitis B virus [23], in the data set on Hepatitis B virus [24] and in the data set with Hepatitis B virus [26] was Active. Further, the inhibition entry with HepG2 [6], in the data set on HepG2 [11], in the data set on HepG2 [14] and in the data set with HepG2 [22] was “inactive” in each case. Further, the “inhibition (INH)” value was “Not Active” in data set [7]; “Not Active” in data set [13]; “Active” in [15]; “Active” in [16]; “Not Active” in [17]; “Not Active” in data set [19]. The “inhibition (INH)” value in [25], in [27] and in data set [29] was “Active” throughout. Further, the outcome in the data set with HepG2 [8], with Hepatitis B virus [10] and with Hepatitis B virus [18] was inactive. The values for the Activity entry in the data set with HepG2 [9], in the data set on Hepatocyte and in the data set on Hepatitis delta virus [20] were “Non-Toxic”, “Non-Toxic” and 1.8%, respectively. Besides, in the data set on Hepatitis B virus [28], the IC50 came to 12 nM.
